Measurements from patent US20140377870A1 (priority 2010, published 2014).

How the values were obtained:
[1] = test system: cells not expressing the HSV-TK gene; conditions: cited from earlier work
ES cells = conditions: cited from earlier work
VACVΔE3L::GyrB-PKRK296H = format: cell-based, vaccinia virus
VACVΔJ2R::GyrB-PKR = format: cell-based, vaccinia virus
VACVΔE3L = format: cell-based, vaccinia virus
VACVΔE3L::GyrB-PKR = format: cell-based, vaccinia virus

| Molecule | nonspecific toxicity [1] | totipotency of ES cells (ES cells) | sensitivity of virus to coumermycin (VACVΔE3L::GyrB-PKRK296H) | sensitivity to coumermycin compared to untreated cells (VACVΔJ2R::GyrB-PKR) | sensitivity of virus to coumermycin (VACVΔE3L) | coumermycin concentration at which sensitivity of the virus was observed (VACVΔE3L::GyrB-PKR) |
| --- | --- | --- | --- | --- | --- | --- |
| Nc1nc(O)c2ncn(COC(CO)CO)c2n1 [GCV, ganciclovir] | nonspecific toxicity | reduce the totipotency | – | – | – | – |
| Coumermycin A1 | – | – | resistant to all doses | at least 100,000 fold | resistant to all doses | greater than 5 ng/ml |
